Measured values reported in ChEMBL document CHEMBL1201862, “PubChem BioAssay data set” (2004).
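Cultured in 96-well plates, cells were exposed to test compound for 48 hours across five concentrations. At the GI50, growth is halved.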 Calls of active or inactive are those of the source. No stated cut-off is given here; in the data, active = GI50 up to about 1.1 µM and inactive = higher.

What was measured:
Experiment in all cases: inhibition of tumour cell growth, NCI panel, 48 h
T47D = tested on: T47D
NCI-H23 = tested on: NCI-H23
NCI/ADR-RES = tested on: NCI/ADR-RES
A498 = tested on: A498
MCF7 = tested on: MCF7
MDA-N = tested on: MDA-N
SNB-19 = tested on: SNB-19
UO-31 = tested on: UO-31
DU-145 = tested on: DU-145
SF-295 = tested on: SF-295
NCI-H226 = tested on: NCI-H226
BT-549 = tested on: BT-549
M19-MEL = tested on: M19-MEL
LXFL 529 = tested on: LXFL 529
KM-20L2 = tested on: KM-20L2
SF-268 = tested on: SF-268
SNB-78 = tested on: SNB-78
HL-60 = tested on: HL-60
MDA-MB-231 = tested on: MDA-MB-231
HOP-18 = tested on: HOP-18

| SMILES | GI50 (T47D) | GI50 (NCI-H23) | GI50 (NCI/ADR-RES) | GI50 (A498) | GI50 (MCF7) | GI50 (MDA-N) | GI50 (SNB-19) | GI50 (UO-31) | GI50 (DU-145) | GI50 (SF-295) | GI50 (NCI-H226) | GI50 (BT-549) | GI50 (M19-MEL) | GI50 (LXFL 529) | GI50 (KM-20L2) | GI50 (SF-268) | GI50 (SNB-78) | GI50 (HL-60) | GI50 (MDA-MB-231) | GI50 (HOP-18) |
| --- | --- | --- | --- | --- | --- | --- | --- | --- | --- | --- | --- | --- | --- | --- | --- | --- | --- | --- | --- | --- |
| Nc1nc(Cl)nc2c1ncn2C1CCC(CO)O1 (stereo not given) | > 100 µM (inactive) | 87.9 µM (inactive) | 90.6 µM (inactive) | > 100 µM (inactive) | > 100 µM (inactive) | > 100 µM (inactive) | > 100 µM (inactive) | > 100 µM (inactive) | > 100 µM (inactive) | > 100 µM (inactive) | > 100 µM (inactive) | > 100 µM (inactive) |  |  |  |  |  |  |  |  |
| O=c1ccc2nc3cc(Br)ccc3sc-2c1 |  | > 100 µM (inactive) |  |  |  |  | > 100 µM (inactive) | > 100 µM (inactive) |  | > 100 µM (inactive) | > 100 µM (inactive) |  | 55.1 µM (inactive) | 89.7 µM (inactive) | > 100 µM (inactive) | > 100 µM (inactive) | > 100 µM (inactive) | 13.5 µM (inactive) |  |  |
| CCCCC(=O)c1c(O)nc2sccn2c1=O | > 10 µM (inactive) | > 10 µM (inactive) | > 10 µM (inactive) | > 10 µM (inactive) | > 10 µM (inactive) | > 10 µM (inactive) | > 10 µM (inactive) | > 10 µM (inactive) | > 10 µM (inactive) | > 10 µM (inactive) | > 10 µM (inactive) |  |  |  |  | > 10 µM (inactive) |  | > 10 µM (inactive) | > 10 µM (inactive) |  |
| Cc1cccc(C(C)C)c1NC(=O)CC1Sc2ccccc2NC1=O (stereo not given) |  | > 100 µM (inactive) |  | 72.4 µM (inactive) |  |  | > 100 µM (inactive) | 74.5 µM (inactive) |  | 40.2 µM (inactive) | 77.8 µM (inactive) |  |  | 79.1 µM (inactive) | > 100 µM (inactive) | 63 µM (inactive) |  | 46.9 µM (inactive) |  | > 100 µM (inactive) |
| CSc1nc(Cl)c2c(n1)Sc1ncnn1C2O (stereo not given) |  | 14.2 µM (inactive) | 25.9 µM (inactive) | 20 µM (inactive) | 3.83 µM (inactive) | 7.13 µM (inactive) | 28 µM (inactive) | 2.55 µM (inactive) | 7.08 µM (inactive) |  |  | 11.4 µM (inactive) |  |  |  | 6.61 µM (inactive) |  | 0.0547 µM (active) | 16.1 µM (inactive) |  |
| O=C(O)C12CCCC(CCC1)C2 |  | > 100 µM (inactive) |  | > 100 µM (inactive) |  |  | > 100 µM (inactive) | > 100 µM (inactive) |  | > 100 µM (inactive) |  |  |  | > 100 µM (inactive) |  | > 100 µM (inactive) | > 100 µM (inactive) | > 100 µM (inactive) |  |  |
| CCCCn1/c(=N/C(=S)N(C)C)ss/c1=N\C(=S)N(C)C |  | > 100 µM (inactive) |  | > 100 µM (inactive) |  |  | > 100 µM (inactive) | > 100 µM (inactive) |  | > 100 µM (inactive) | 7.28 µM (inactive) |  | > 100 µM (inactive) | > 100 µM (inactive) | > 100 µM (inactive) | > 100 µM (inactive) | > 100 µM (inactive) | > 100 µM (inactive) |  | > 100 µM (inactive) |
| COC1CCC(O)C(CO)O1 (stereo not given) |  | > 100 µM (inactive) |  |  |  |  |  | > 100 µM (inactive) |  | > 100 µM (inactive) |  |  | 60.7 µM (inactive) | 50.6 µM (inactive) | > 100 µM (inactive) |  | > 100 µM (inactive) | 31.7 µM (inactive) |  |  |
| Cc1ccc2c(c1)C(=O)N(N(C)C)CC(=O)N2 |  | > 100 µM (inactive) |  | > 100 µM (inactive) |  |  | > 100 µM (inactive) | > 100 µM (inactive) |  | > 100 µM (inactive) | > 100 µM (inactive) |  | > 100 µM (inactive) | > 100 µM (inactive) |  | > 100 µM (inactive) | > 100 µM (inactive) | > 100 µM (inactive) |  | > 100 µM (inactive) |
| COc1cc(C2c3cc4c(cc3[C@@H](Nc3ccc5c(c3)OCO5)C3COC(=O)[C@H]23)OCO4)cc(OC)c1O (stereo not given in full) |  | 0.303 µM (active) | 0.482 µM (active) | 0.333 µM (active) | 0.175 µM (active) |  | 0.299 µM (active) | 0.382 µM (active) |  | 0.213 µM (active) | 0.217 µM (active) |  | 1.65 µM (inactive) |  | 2.24 µM (inactive) | 0.953 µM (active) |  | 0.043 µM (active) |  | 0.766 µM (active) |
| CC1(C)OC2CC(=O)OCC23C1CC(=O)C1(C)C3CCC2(C)C(c3ccoc3)OC(=O)C3OC321 (stereo not given) |  | > 125 µM (inactive) | > 125 µM (inactive) | > 125 µM (inactive) | > 70.3 µM (inactive) |  | > 125 µM (inactive) | > 125 µM (inactive) |  | > 125 µM (inactive) | > 125 µM (inactive) |  | > 125 µM (inactive) |  | > 125 µM (inactive) | > 125 µM (inactive) | > 125 µM (inactive) | 101 µM (inactive) |  | > 125 µM (inactive) |
| c1ccc2c(c1)SP1Sc3ccccc3P21 (stereo not given) |  | > 100 µM (inactive) | > 100 µM (inactive) | > 100 µM (inactive) | > 100 µM (inactive) |  | > 28.2 µM (inactive) | 68.1 µM (inactive) |  | > 100 µM (inactive) | > 45.7 µM (inactive) |  | > 100 µM (inactive) |  | > 78 µM (inactive) | > 95.3 µM (inactive) | > 100 µM (inactive) | > 72.8 µM (inactive) |  | 18.1 µM (inactive) |
| COc1ccc(C2CC(c3c(O)ccc4ccccc34)=NN2)cc1OC (stereo not given) | 4.04 µM (inactive) | 3.22 µM (inactive) | 2.62 µM (inactive) | 18.5 µM (inactive) | 6.37 µM (inactive) | 3.95 µM (inactive) | 2.1 µM (inactive) | 2.11 µM (inactive) | 5.71 µM (inactive) | 2.55 µM (inactive) | 2.54 µM (inactive) | 3.92 µM (inactive) |  |  |  | 2.87 µM (inactive) |  | 4.42 µM (inactive) | 9.79 µM (inactive) |  |
| CC(C)(C)[Si](C)(C)OCC1OC(n2cnc3c(N)ncnc32)CC1O (stereo not given) | 41.6 µM (inactive) | 79.4 µM (inactive) | 40.4 µM (inactive) | 81.8 µM (inactive) | > 100 µM (inactive) | > 100 µM (inactive) | > 100 µM (inactive) | 13 µM (inactive) | 95.5 µM (inactive) | > 100 µM (inactive) | 53.1 µM (inactive) | 32.7 µM (inactive) |  |  |  |  |  | 20 µM (inactive) | 52.5 µM (inactive) |  |
| CNC(=O)CNC(=O)CCC(=O)N(C)C | > 100 µM (inactive) | > 100 µM (inactive) | > 100 µM (inactive) | > 100 µM (inactive) | > 100 µM (inactive) | > 100 µM (inactive) | > 100 µM (inactive) | > 100 µM (inactive) | > 100 µM (inactive) | > 100 µM (inactive) | > 100 µM (inactive) | > 100 µM (inactive) |  |  |  | > 100 µM (inactive) |  | > 100 µM (inactive) | > 100 µM (inactive) |  |
| [O-][n+]1c2c([n+]([O-])c3ccccc31)-c1cccc3cccc-2c13 | > 100 µM (inactive) | 47.3 µM (inactive) | > 100 µM (inactive) | > 100 µM (inactive) | > 100 µM (inactive) | > 100 µM (inactive) | > 100 µM (inactive) | 43 µM (inactive) | > 100 µM (inactive) | 34.3 µM (inactive) | > 100 µM (inactive) |  |  |  |  | 29 µM (inactive) |  | > 100 µM (inactive) | 33 µM (inactive) |  |
| CC(C)C[C@@H](NC(=O)[C@@H](Cc1cccc2ccccc12)NC(=O)N1CCOCC1)B(O)O | 58.2 µM (inactive) | 51.2 µM (inactive) | > 100 µM (inactive) | 31 µM (inactive) |  | 20.7 µM (inactive) | > 100 µM (inactive) | > 100 µM (inactive) | > 100 µM (inactive) |  | 18 µM (inactive) | 36.3 µM (inactive) |  |  |  | 61.5 µM (inactive) |  | 38.7 µM (inactive) | 50.5 µM (inactive) |  |
| CN(C)CCCNC(=O)N/N=C/c1ccccn1 | > 10 µM (inactive) |  | > 10 µM (inactive) | > 10 µM (inactive) | > 10 µM (inactive) | > 10 µM (inactive) |  | > 10 µM (inactive) | > 10 µM (inactive) | > 10 µM (inactive) |  |  |  |  |  | > 10 µM (inactive) |  | > 10 µM (inactive) | > 10 µM (inactive) |  |
